According to patent US20130330322A1, “Methods of Treating Skin Aging With Toll-Like Receptor 7 Agonists” (Metabeauty, Inc., priority 2012, published 2013):

Columns and labels:
[1] = system: normal photodamaged dermal or epidermal tissue; conditions: topical application; cited from earlier work
PBMC and pDC = experiment: cytokine production by PBMC and plasmacytoid dendritic cells (RT-PCR, ELISA); format: cell-based, human; conditions: added at 0.02% to 1% at the same time as TLR-7 agonists
Method: Cytokine production by plasmacytoid dendritic cells is measured using real-time RT-PCR on RNA collected from peripheral blood mononuclear cells (PBMC) including pDC (plasmacytoid dendritic cells).
An IRM (TLR-7 agonist) as described in one of the four embodiments of the present invention is introduced into a 24-well plate containing PBMC and pDC h Control wells are treated with DMSO. Cells are incubated for either one or two hours at 37° C. At the indicated times the cells are harvested by gently pipeting the cells into a 1.5 mL Eppendorf tube and centrifuging at 400 RCF for 10 min at 4° C. The supernatant is removed from the tube and the cells are lysed with 1 mL TRIzol (Life Technologies). […] RNA is quantified by absorbency (Abs260) and is reverse-transcribed using SuperScript First Strand Synthesis System for RT-PCR (Life Technologies). Primers for quantitative PCR are generated using Primer Express (PE Applied Biosystems). […] Quantitative PCR is performed on an ABI PRISM 7700 Sequence Detector. Amplified products are detected using SYBR Green PCR Master Mix (PE Biosystems). […] Relative quantitation of gene expression was performed using the DDCt method (User Bulletin #2, PE Applied Systems).
Cytokine and chemokine protein levels are measured from tissue culture supernatants or cell extracts using commercially-available enzyme-linked immuno assay (ELISA) kits. […]

aging skin [2] = experiment: twelve-week clinical study, combined contemporaneous treatment with IRM and retinoid (2a); format: in vivo, human; conditions: contemporaneous application
Method: On Day 0, each enrolled subject is supplied with a package of individually coded tubes of cream, labeled “Tube A” and “Tube B”. Tube A contains one of two formulations: 5% IRM+vehicle (carrier); or vehicle only (placebo); Tube B contains either 0.025% tretinoin in a cream formulation or vehicle only (placebo). The subjects apply Tube A to the arms and face, wait 5 minutes, and then apply the contents of Tube B over the same area. Labels are randomly assigned with records separately maintained identifying the formulation. Codes are not known to either the subjects or the investigator until the study is completed and the data analyzed. All subjects receive Cetaphil cleanser, moisturizer and sunscreen for daily use throughout the study. The first application of Tube A and B is done in the presence of the study coordinator to ensure proper application. Written directions are given to the subjects to apply the products at the same time of day every day and to apply Tube B five minutes after applying Tube A.
Study participants apply the study creams once daily for 12 weeks. […]
Skin firmness (elasticity) is assessed using a ballistometer. Skin retention of water/skin moisture content is assessed via impedance measurements on the cheek area of subjects using a Novameter. Transepidermal water loss is measured using a Tewameter. Sebum secretion is measured using a Sebometer and Sebutape.

aging skin [3] = experiment: clinical study, combined day/night treatment with IRM and retinoid (2b); format: in vivo, human; conditions: day/night application
Method: The above study is repeated except that the topical composition containing the IRM is applied in the morning and a topical composition containing tretinoin is applied at night. Standard 2-4 mm skin punch biopsies are taken at pre-identified sites (on subject's arms) on Day 0 and at the Week 12 visit. Subjects apply the assigned formulation in the presence of the investigator and return for a biopsy within 4-6 hours.

SMILES | time until improved appearance (reduction in the appearance of fine lines and wrinkles) is visible [1] [weeks] | amount of IFN-γ expressed by PBMC cells upon exposure to the TLR-7 agonist (PBMC and pDC) | Irritation (erythema and scaling) (aging skin [2]) | TEWL (Tewameter) (aging skin [2]) | Irritation (erythema and scaling) (aging skin [3]) | TEWL (Tewameter) (aging skin [3])
CC(C)Cn1cnc2c(N)nc3ccccc3c21 [Imiquimod, 1-isobutyl-1H-imidazo[4,5,-C]quinolin-4-amine] | ≤ 4 | – | – | – | – | –
CC1=C(/C=C/C(C)=C/C=C/C(C)=C/C(=O)O)C(C)(C)CCC1 [tretinoin, all-trans retinoic acid] | – | lowers | at all time points but maximally at the 2 and 4 week time points | increased TEWL | at all time points but maximally at the 2 and 4 week time points | increased TEWL
